Test [1] concerns INS1 cells expressing MitoTimer. Kind of test: MitoTimer red/green ratio high-content screen and dose-response. The format is cell-based. On the procedure:
INS1 cells were stably transduced with MitoTimer by lentiviral infection and were tested using known modulators of autophagy. The paradigm used was based on previous reports showing that the shift in emission from green to red occurs within 18 hours. Assuming that this shift is constant, changes in red FI occurring during this frame of time can result from an effect on MitoTimer clearance and not from an effect on synthesis. The paradigm employed consisted therefore of a treatment lasting 18 hours followed by imaging.
Stimulators of mitochondrial clearance were defined as those inducing a red-to-green FI below −3 and a red intensity below −5.1. Suppressors of mitochondrial clearance were defined as those inducing a red-to-green FI above 10.34 and a red intensity above 4.5. […] Compounds displaying high green FI (above 15) were also discarded to prevent the inclusion of autofluorescent molecules. Only molecules that filled the above criteria in both duplicates were further tested.
The screen was performed during 8 sessions in Weizmann institute. All compounds were tested at a concentration of 10 μM, in duplicates. The images were processed to reduce background (using Metamorph software) and then analyzed in GeneData software.
We subjected those compounds to a dose-response assay (concentrations: 10, 3.33, 1.11, 0.37 and 0.12 μM).
MitoTimer expressing INS1 cells generation, Cell Culture and treatments. MitoTimer-reporter was cloned into the pHAGE2 lenti-vector under the full-length EF1-alpha promoter to obtain constitutive expression. For the HCS, INS1 cells were infected with lentivirus carrying mitochondrial complex-I-targeted-MitoTimer plasmid. Highly expressing cells were selected by high speed fluorescence activated cell sorter (SY3200 cell sorter, Synergy, iCyt) and kept by the addition of puromycin (1 mg . L-1) in the cell media. Cells were thawed before each experiment, and MitoTimer expression checked through fluorescence.
High-Content Screening. […] HCS assay was developed at the Drug Discovery Unit, INCPM, Weizmann Institute of Science. […] Briefly, cells were treated with 10 uM of each compounds for 18 h and imaged in two wavelengths (FITC—excitation […], emission 520/35 nm and TRITC—excitation 543/22 nm, emission 593/40 nm) at ImageXpress Micro High-Content Imaging System/Molecular Devices. Rapamycin 100 nM was used as a control. In each cell plate, the neutral (DMSO) and positive control (Rapamycin) were repeated in 16 replicates while the treatments were performed in duplicates. Each plate was replicated and only hits found in the 2 independent plates were considered. Two fields of each well were analyzed, what normally allowed the analysis of 20-40 cells per condition. MitoTimer red/green ratio for every cell was done in MetaXpress. […] The compounds which affected MitoTimer red/green ratio in a dose response, ranging from […], were classified as a hit.
Individual cells were identified using the red channel, and red and green MitoTimer fluorescence were analyzed and ratio determined per cell.

With `CC(=O)N/C(=C\c1sc2ccccc2c1C)C(=O)O` [SPB08007], in test [1] (10 uM, INS1 cells), the “red/green MitoTimer ratio” value is “reduced”. For the same molecule, in test [1] (50 uM dose), the MitoTimer green readout result is recorded as “increase”. The “maximum reduction on the ratio index (MitoTimer red/green)” value in test [1] (50 uM dose, 18 h, vs DMSO) is reported as 40%. Moreover, the “optimal dose for stimulating a reduction in red-to-green FI” value in test [1] (INS1 cells, 18 h) turned out to be 25 µM. The “activity (MitoTimer red-to-green FI, Z-score vs DMSO)” value in test [1] (INS1 cells, 18 h, dose-response) is reported as −3.018. The EC50 in test [1] (Rattus norvegicus, INS1 cells, 18 h, dose-response, read-out: qEC50) is 49 µM. In the test with INS1 cells (25 μM, 18 hours exposure), the OCR under oligomycin entry is “decreased as well”, the “basal oxygen consumption rate (OCR)” value is recorded as “decreased” and the “maximal OCR (under FCCP induction)” value is on record as “decreased”. Besides, in the test with INS1 cells (25 uM, 48 h), the ATP-linked oxygen consumption result is “higher”, the “glucose-stimulated mtOCR” value is listed as “increased”, the “mitochondrial coupling (oligomycin-sensitive respiration)” value is “conserving” and the “spare respiratory capacity relative to basal respiration” value is given as “unchanged”. In the test with INS1 cells (25 uM, 48 h, 2 mM glucose), the “basal mitochondrial oxygen consumption rate (mtOCR)” value is recorded as “increased”. Moreover, the “maximum mtOCR” value in the test on INS1 cells (25 uM, 48 h, after FCCP) is recorded as “increased”.

Source of the values: patent US20230002344A1, “NOVEL BENZOTHIOPHENE DERIVATIVES AND USE THEREOF FOR STIMULATING MITOCHONDRIAL TURNOVER” (NIBN, The National Institute For Biotechnology In The Negev …, priority 2019, published 2023).
